The values below are quoted from earlier work in article PMC12521730, “Quantitative dual-isotope preclinical SPECT/CT imaging and biodistribution of the mercury-197m/g theranostic pair with [^197m/gHg]HgCl2 and a [^197m/gHg]Hg-tetrathiol complex as a platform for radiopharmaceutical development” (EJNMMI Radiopharmacy and Chemistry, 2025).

Details of data set [1]: method as in Randhawa et al. [2023]. As to conditions: 72 h; ref Randhawa et al. [2023]; cited from earlier work.
The conditions of data set [2]: 24 h; ref Randhawa et al. [2023]; cited from earlier work.

For `O=C(CN1CCSCCSCCSCCSCC1)NCc1ccccc1.[Hg+2]` [NS4-BA complex], the “intact complex when challenged against GSH” value in data set [1] is listed as 92 ± 1%. The “intact complex in human serum” value in data set [2] is given as 74 ± 7%.
